Where no end group is shown, it is not given here.
Columns and labels:
[1] = Peptide solubility assay (Zn2+-induced precipitation from NaPB); type: physicochemical; conditions: 15 µM peptide in 10 mM NaPB pH 7.4, 30 min at room temperature (20 °C), centrifuged 20000 x g 10 min, supernatant by NanoDrop A205, triplicate, averaged
Description: Aggregation was quantified by measuring peptide precipitation from NaPB. Molar ratios of [0:0], [0:1], [1:2], [1:1], [2:1], [3:1], and [4:1] ZnSO4 to 15 µM peptide were used and samples were incubated for 30 min at room temperature (20 °C) before centrifugation. Samples were spun at 20000× g for 10 min at room temperature and the protein concentrations of the supernatants were subsequently measured using microvolume spectrophotometry (NanoDrop One, Thermofisher Scientific, Waltham, MA, USA) Data were cleaned using robust regression and outlier removal (ROUT) with Q set to 1%. Cleaned data were baseline corrected by subtracting peptide- and metal- free NaPB (0:0). […] Percent aggregation out of total peptide added was calculated. […] Statistical differences between the peptides at each metal salt titration were calculated using two-way ANOVA with Tukey’s multiple comparison test.
Figure 2 The three Hsts are all soluble at a physiological ratio of Zn^2+ to peptide but differ in relative Zn^2+ affinity. […] Peptide solubility was measured via NanoDrop A205 after removal of insoluble aggregates by centrifugation. […] Absorbance of Zincon at 621 nm was measured as an inverse indicator of relative peptide affinity, as Zincon has a blue color when bound to zinc. […]

[2] = test system: Candida albicans (SC5314); test: Extracellular ATP quantification (ATP efflux), C. albicans; type: cell-based; conditions: 0.88 fmol/cell; for ATP efflux with added Zn2+: 1:2 ZnSO4:peptide, 10 mM NaPB pH 7.4, words = versus peptide alone; for total ATP efflux: peptide alone, 10 mM NaPB pH 7.4, luminescence
Description: (§1) Candida albicans (SC5314) or Candida glabrata (Cg931010) cells were prepared as for peptide uptake assays, with the exception that cells were added to samples at a dosage of 0.88 fmol peptide/cell in a 1:2 ratio of ZnSO4:peptide. After samples were mixed, each was immediately centrifuged for 2 min at 6000× g at room temperature, after which 10 µL supernatant was removed to new tubes and added to 84 µL boiling TE buffer (50 mM Tris pH 7.5, 2 mM EDTA pH 8) (1-min time point). Pelleted cells were resuspended with vortexing. After this, samples were incubated at 30 °C (220 rpm) and removed from incubation for a 10-min time point. Samples in TE buffer were boiled for two more minutes and stored on ice for quantitation. Then, 25µL of each sample were added to 10 µL Staybrite adenosine triphosphate (ATP) assay mix and 65 µL assay buffer (Biovision, Milpitas, CA, USA), and luminescence was immediately measured using a FlexStation 3 plate reader (Molecular Devices, San Jose, CA, USA). Experiments were carried out on at least three separate days. Data were interpolated using a standard curve to determine moles of ATP in each sample. Significant differences between Zn^2+ added and Zn^2+-free samples at each time point were determined using one-way ANOVA and Sidak’s multiple comparisons test.
Figure 5 Zinc induces almost immediate ATP efflux. C. albicans SC5314 bioluminescent ATP efflux assay. Cells were treated at 30 °C with 0.88 fmol/ cell. Hst 5 (red), Hst 5ΔMB (blue), or P113 (green) in 10 mM sodium phosphate buffer pH 7.4 with or without added Zn^2+ at a one to two peptides ratio (hatched). Cells were removed from samples via centrifugation and aliquots of supernatant were taken at 1 min and 10 min time points to measure extracellular ATP by luminescence. Experiments were repeated on at least three separate days and averaged. Significance of differences in ATP efflux calculated using one way ANOVA with Sidak’s multiple comparison test. ** indicates p ≤ 0.01, *** indicates p ≤ 0.001.

[3] = test system: Candida albicans strain SC5314; test: Candidacidal assay, C. albicans; type: cell-based; conditions: 0.44 fmol/cell, 1 Zn2+ to 2 peptides, 1 h at 30 °C, 10 mM NaPB pH 7.4; words = versus peptide alone
Description: (§2) Experiments were carried out with Candida albicans strain SC5314 [41] or Candida glabrata strain Cg931010 [42]. Liquid and solid pre-mixed yeast-peptone-dextrose media was used to grow yeast cells (YPD and YPD-Agar, respectively) (Fisher Scientific, Waltham, MA, USA). All media was prepared in deionized water with 50 µg/ mL supplemented uridine (Sigma Aldrich, St. Louis, MO, USA), and sterilized by autoclave. Metal salt solutions of ZnSO4·7H2O (Fisher Scientific, Waltham, MA, USA) were made in High-performance liquid chromatography (HPLC)-grade water (JT Baker, Phillipsburg, NJ, USA) and used within one day of preparation. […]
(§3) Cells (C. albicans or C. glabrata) were cultured as previously described. […] Significance of differences in killing between Zn^2+ and Zn^2+-free samples were calculated using one-way ANOVA with Sidak’s multiple comparisons test.
(A) Candidacidal assays of C. albicans SC5314 cells with 1 h incubation at 30 °C of Hst 5 (red), Hst 5ΔMB (blue), and P113 (green) at dosages of 0.44, 3.75, 7.5, 15, and 30 fmol/cell in 10 mM sodium phosphate buffer pH 7.4. […] Significance of differences in killing activity were calculated using one way ANOVA with Sidak’s multiple comparisons test. * indicates p ≤ 0.05, ** indicates p ≤ 0.01, **** indicates p ≤ 0.0001.

C. albicans cells = test: Peptide uptake (cell association) assay; type: cell-based, Candida albicans; conditions: 0.44 fmol/cell, 30 °C, up to 20 min, initial binding subtracted
Description: as §2
C. albicans cells were added to pre-incubated peptides (30 min, 20 °C) alone or at a 1 Zn^2+:2 peptide ratio, and additionally to Hst 5 at a 3 Zn^2+:2 peptide ratio, using a dose of 0.44 fmol peptide/cell. After cells were added, samples were vortexed briefly and immediately centrifuged for 2 min at 6000× g at 20 °C, after which 10 µL supernatant was removed to new tubes and stored at 4 °C for quantification. […] Protein concentration in supernatant samples was measured by NanoDrop. […] Significance of differences in uptake rate and binding between zinc added and zinc free samples were calculated using two-way ANOVA with Sidak’s multiple comparisons test. […]

[4] = test system: Candida glabrata (Cg931010); test: Extracellular ATP quantification (ATP efflux), C. glabrata; type: cell-based; conditions: 0.88 fmol/cell
Description: as §1, with “test. […]” for “test.”

[5] = Zinc-binding competition assay with Zincon; conditions: competition with Zincon 1:1, 20 µM peptide, 10 mM NaPB pH 7.4, ZnSO4 titration, absorbance at 621 nm; triplicate, averaged
Description: Binding competition assays were carried out utilizing the colorimetric copper and Zn^2+ binding dye Zincon. Peptides (20 µM) were mixed with Zincon at a 1:1 ratio and titrated with increasing equivalents of ZnSO4. Absorbance at 621 nm was measured at each addition of metal salt using a Lambda 25 UV/Vis spectrophotometer (Perkin Elmer, Waltham, MA, USA). Data were curve fit using a one site competition equation.
Figure 2 The three Hsts are all soluble at a physiological ratio of Zn^2+ to peptide but differ in relative Zn^2+ affinity. (A) Percent solubility of 15 µM Hst 5 (red), Hst 5ΔMB (blue), and P113 (green) in 10 mM sodium phosphate buffer pH 7.4 with increasing ratio of Zn^2+ incubated at room temperature for 30 min. Peptide solubility was measured via NanoDrop A205 after removal of insoluble aggregates by centrifugation. (B) Binding competition assay with Zincon and peptides at 20 µM in 10 mM sodium phosphate buffer pH 7.4 to establish relative affinity of Hst 5 (red), Hst 5ΔMB (blue), and P113 (green) for Zn^2+ at increasing molar ratios. Absorbance of Zincon at 621 nm was measured as an inverse indicator of relative peptide affinity, as Zincon has a blue color when bound to zinc. Experiments were performed in triplicate and averaged.

[6] = test system: Candida glabrata strain Cg931010; type: cell-based; conditions: strain Cg931010, 18 h
Description: as §2, §3
Figure 6 Zinc greatly increases Hst 5 and P113 killing of C. glabrata, and induces almost immediate ATP efflux. […] Cells were removed from samples via centrifugation and aliquots of supernatant were taken at 1 and 10 min time points to measure extracellular ATP by luminescence. […] Significance of differences in killing and ATP efflux were calculated using one way ANOVA with Sidak’s multiple comparison test. * indicates p ≤ 0.05, **** indicates p ≤ 0.0001

| Molecule | precipitation of peptide ([1]; 1:1 Zn2+:peptide) [%] | precipitation of peptide ([1]; 4:1 Zn2+:peptide) [%] | ATP efflux with added Zn2+ ([2]; 1 min) | total ATP efflux ([2]; 1 min, at least three days, averaged) [pmol] | ATP efflux with added Zn2+ ([2]; 10 min at 30 °C) | total ATP efflux ([2]; 10 min at 30 °C) [pmol] | killing with added Zn2+ [3] | total uptake with added Zn2+ (C. albicans cells; 1 Zn2+:2 peptide, 10 mM NaPB pH 7.4, words = versus peptide alone) [pmol] | total uptake (C. albicans cells; peptide alone, 10 mM NaPB pH 7.4, supernatant by NanoDrop, at least three days, averaged) [pmol] | ATP efflux total ([4]; 1 min, peptide alone, 10 mM NaPB pH 7.4, luminescence) [pmol] | ATP efflux with added Zn2+ ([4]; 10 min, 1:2 Zn2+:peptide, 10 mM NaPB pH 7.4, words = versus 1 min) | relative affinity for Zn2+ [5] | killing less than in C. albicans under the same conditions [6] [%] |
| --- | --- | --- | --- | --- | --- | --- | --- | --- | --- | --- | --- | --- | --- |
| QQQAKRHHGYKRKFQQQQQSHRGY [Hst 5ΔMB] | 14 | 25 | did not significantly increase | 85 | did not significantly increase | 257 | did not significantly alter | 90 | 370 | ≤ 30 | over 100 pmol | lowest affinity |  |
| C[C@H](NC(=O)[C@H](Cc1c[nH]cn1)NC(=O)[C@H](CO)NC(=O)[C@@H](N)CC(=O)O)C(=O)N[C@@H](CCCCN)C(=O)N[C@@H](CCCNC(=N)N)C(=O)N[C@@H](Cc1c[nH]cn1)C(=O)N[C@@H](Cc1c[nH]cn1)C(=O)NCC(=O)N[C@@H](Cc1ccc(O)cc1)C(=O)N[C@@H](CCCCN)C(=O)N[C@@H](CCCNC(=N)N)C(=O)N[C@@H](CCCCN)C(=O)N[C@@H](Cc1ccccc1)C(=O)N[C@@H](Cc1c[nH]cn1)C(=O)N[C@@H](CCC(=O)O)C(=O)N[C@@H](CCCCN)C(=O)N[C@@H](Cc1c[nH]cn1)C(=O)N[C@@H](Cc1c[nH]cn1)C(=O)N[C@@H](CO)C(=O)N[C@@H](Cc1c[nH]cn1)C(=O)N[C@@H](CCCNC(=N)N)C(=O)NCC(=O)N[C@@H](Cc1ccc(O)cc1)C(=O)O [Hst 5, Histatin 5] |  |  |  |  |  |  |  |  |  |  |  |  | 40 |
